# In patent US8765705B2, “Oligonucleotides inhibiting cellular migration” (Centre National de la Recherche Scientifique, priority 2009, dated 2014):
# Entries after “also recorded” stand apart in the source; their conditions may differ. d = 2'-deoxy (DNA); r = 2'-OH (RNA)
# Tests used:
# C4-2 cells [1] = experiment: Intracellular calcium concentration, Fura-2 calcium imaging; type: cell-based, human; conditions: 300 μM
# Protocol: Fluorescence imaging was carried out in Hank's balanced salt solution (HBSS) containing 142 mM NaCl, 5.6 mM KCl, 1 mM MgCl2, 2 mM CaCl2, 0.34 mM Na2HPO4, 0.44 mM KH2PO4, 10 mM HEPES, and 5.6 mM glucose. Cytosolic calcium concentration was measured using Fura-2 loaded cells (2 μM) as previously described (Mariot et al., 2002). The intracellular calcium concentration was derived from the ratio of the fluorescence intensities for each of the excitation wavelengths (F340/F380) and from the Grynkiewicz equation (Grynkiewicz et al., 1985).
# TSP1 [2] = experiment: TSP1 expression in PC3 cells exposed to CoCl2; type: cell-based, human
# Protocol: FIG. 4G represents the induction of VEGF (grey) and TSP1 (black) mRNA levels normalized to cyclophilin A levels in PC3 cells grown for the indicated periods in cobalt chloride as compared to the respective mRNA levels in control medium at the same time point.
# FIG. 4H represents TSP1 immunodetection in PC3 cells grown for 48 h in control conditions (N) or in the presence of 300 μM CoCl2 to mimic hypoxia (H).
# (§1) LNCaP and C4-2 cells were grown in RMPI containing 10% fetal calf serum, PC-3 cells in DMEM containing 10% fetal calf serum. The Hiperfect reagent (Qiagen, Courtaboeuf, France) was used to transfect cells in 24 wells plates with the indicated siRNAs (10 nM) as recommended by the manufacturer. A metabolic activity assay (WST1, Roche Diagnostics, Meylan France) was used to measure cell proliferation. To mimic hypoxia, cells were grown in the presence of 300 μM cobalt chloride for 48 h. For hypoxic conditions, cells were cultured at 37° C. with 5% CO2, 94% N2 and 1% O2 in a hypoxic incubator (Binder GmbH, Tuttligen, France).
# TSP1 mRNA = TSP1 mRNA level in C4-2 cells, real-time RT-PCR normalized to cyclophilin A; type: cell-based, human
# Protocol: as §1
# (§2) Total RNA was isolated using TRIzol reagent (Invitrogen, Cergy Pontoise, France). RNA were retrotranscribed using a High capacity cDNA Reverse Transcription Kit (Applied Biosystems, Courtaboeuf, France). cDNA was quantified by real time PCR using the Power SYBR® Green PCR Master Mix (Applied Biosystems, Courtaboeuf, France). Human Cyclophilin A was used as an internal control. The sequences of the PCR primers are indicated in the supplementary table 2.
# TRPV3 mRNA = TRPV3 mRNA level in C4-2 cells, real-time RT-PCR; type: cell-based, human; conditions: 48 h, 300 μM
# Protocol: as §1, §2
# C4-2 cells [3] = experiment: Cell proliferation, metabolic activity assay (WST1); type: cell-based, human; conditions: C4-2 cells transfected with siRNA
# Protocol: as §1
# C4-2 cells [4] = experiment: Apoptosis, enzymatic activity of caspases 3 and 7; type: cell-based, human; conditions: for effect on apoptosis: C4-2 cells transfected with siRNA; for enzymatic activity of caspases 3 and 7 versus control: C4-2 cells, 48 h after transfection
# Protocol: FIG. 1F represents the enzymatic activity of caspases 3 and 7 measured 48 h after transfection of C4-2 cells with the TSP1a- or TSP1b-siRNA.
# TSP1 [5] = experiment: TSP1 protein expression in C4-2 cells (indirect immunofluorescence); type: cell-based, human; conditions: for TSP1 protein level: C4-2 cells transfected with siRNA (10 nM), 48 h after transfection
# Protocol: FIG. […]
# as §1
# [6] = test system: TLR3, TLR7, IL6, IL12b, IFNβ, IFNγ, and IP10; experiment: Induction of interferon or inflammatory cytokine genes in the spleen of nude mice, real time RT-PCR; conditions: five hours after one i.p. injection of 4 mg/kg in PBS
# Protocol: The mRNA level of the indicated genes, normalized to cyclophilin A, was quantified by real time RT-PCR in the spleen.
# All the injections were carried out with a dose of 4 mg/kg siRNA diluted in PBS. Five hours after injection, mRNAs coding several genes involved in innate immune response or in inflammation were quantified by quantitative real time RT-PCT.
# C4-2 cells [7] = experiment: Migration assay, modified Boyden chamber, C4-2 cells; type: cell-based, human; conditions: siRNA-transfected cells, towards fresh medium
# Protocol: The cell migration capacity can be measured in vitro using a modified Boyden Chamber. Boyden Chamber consists of two compartments separated by a permeable membrane. Cells are placed in the upper chamber and the chemotactic factors in the lower chamber. Cells migrating through the membrane are counted.
# The migration capacity was measured using a modified Boyden Chamber. Cells (40,000) were seeded in RPMI 1% FBS in the upper part of a cell culture-chamber-insert system separated from the lower chamber by a 8 μm PET membrane (BD Biosciences, Le Pont de Claix, France). RPMI 10% FBS, or conditioned medium was added in the lower compartment. Eighteen hours later, non migrating cells in the upper compartment were scrapped off using a cotton swab. Cells on the lower side of the membrane were fixed with methanol at −20° C. and stained with Hoechst 33258 (Sigma-Aldrich, Saint-Quentin Fallavier, France). Membranes were then excised, mounted on a glass side with Glycergel (DAKO) and cells counted.
# TSP1 [8] = experiment: TSP1 secretion in the culture medium of C4-2 cells (western blotting); type: cell-based, human; conditions: 2 h treatment
# Protocol: FIG. 2B represents TSP1 secretion in the cell culture medium by C4-2 cells treated for 2 h by vehicle (left) or thapsigargin (1 μM) (right). The secreted TSP1 is measured by western blotting in the cell culture medium. FIG. 2D represents TSP1 secretion in the cell culture medium by C4-2 cells treated for 2 h by vehicle or camphor at the indicated doses. The secreted TSP1 is measured by western blotting in the cell culture medium. FIG. 3D represents Western blot detection of TSP1 in the culture medium of C4-2 cells transfected with cont- or TSP1-siRNA 48 h after transfection.
# [9] = C4-2 cells transfected with siRNA (10 nM), 2 days after transfection
molecule,measurement,setting,value
[Cl][Co][Cl] [cobalt chloride],"intracellular calcium concentration, resting level",C4-2 cells [1]; 48 h,increased over two fold
same,"intracellular calcium concentration, resting level",C4-2 cells [1]; after 30 min,not modified
same,TSP1 expression at the mRNA level,TSP1 [2],induced
same,TSP1 expression at the protein level,"TSP1 [2]; 48 h, 300 μM",induced
same,TSP1 mRNA level,"TSP1 mRNA; C4-2 cells, 48 h, 300 μM",strongly induced
same,TRPV3 mRNA level,TRPV3 mRNA,strongly induced
"TSP1a-siRNA: Duplex CCUUGACAACAACGUGGUGdTdT / CACCACGUUGUUGUCAAGGdTdT targeting TSP1 mRNA, sequence conserved between human and mouse (sense CCUUGACAACAACGUGGUGTT; antisense CACCACGUUGUUGUCAAGGTT; sugars from the 5' end r19 d2, backbone not given here)",effect on cell proliferation,C4-2 cells [3],no effect; also recorded: without affecting
same,effect on apoptosis,C4-2 cells [4],no effect
same,enzymatic activity of caspases 3 and 7 versus control,C4-2 cells [4],not statistically different
same,TSP1 mRNA level,TSP1 mRNA; [9],significantly reduces
same,TSP1 protein level,TSP1 [5],significantly reduces
"TRPV2: siRNA targeting TRPV2: UAAGAGUCAACCUCAACUAdTdT / UAGUUGAGGUUGACUCUUAdTdT (chain 1 UAAGAGUCAACCUCAACUATT; chain 2 UAGUUGAGGUUGACUCUUATT; sugars from the 5' end r19 d2, backbone not given here)",TSP1 mRNA level,TSP1 mRNA; [9],reduced
Poly (I:C) [reference compound],"induction of TLR3, TLR7, IL6, IL12b, IFNβ, IFNγ, and IP10 mRNA",[6],significant increase
"CD36: siRNA targeting CD36: UACAGACAGUUUUGGAUCUdTdT / AGAUCCAAAACUGUCUGUAdTdT (chain 1 UACAGACAGUUUUGGAUCUTT; chain 2 AGAUCCAAAACUGUCUGUATT; sugars from the 5' end r19 d2, backbone not given here)",migration of C4-2 cells,C4-2 cells [7],strongly reduced
"TRPV6: siRNA targeting TRPV6: GGAAGACAGGCAAGAUCUCdTdT / GAGAUCUUGCCUGUCUUCCdTdT (chain 1 GGAAGACAGGCAAGAUCUCTT; chain 2 GAGAUCUUGCCUGUCUUCCTT; sugars from the 5' end r19 d2, backbone not given here)",TSP1 mRNA level,TSP1 mRNA; [9],reduced
"C/C=C(/C)C(=O)O[C@H]1C(C)=C2[C@H]([C@@H]1OC(=O)CCCCCCC)[C@@](C)(OC(C)=O)C[C@H](OC(=O)CCC)[C@@]1(O)[C@H]2OC(=O)[C@@]1(C)O [thapsigargin, reference compound]",TSP1 in the cytosol,"TSP1 [5]; C4-2 cells, 2 h treatment, 1 μM",rapid depletion
"CC12CCC(CC1=O)C2(C)C (stereo not drawn) [camphor, reference compound]",TSP1 secretion into the culture medium,TSP1 [8],stimulated
same,TSP1 mRNA level,"TSP1 mRNA; C4-2 cells, 6 h treatment",dose dependent increase
"TSP1b-siRNA: Duplex UACCCGAGACGAUUGUAUGdTdT / CAUACAAUCGUCUCGGGUAdTdT targeting specifically the human TSP1 mRNA (sense UACCCGAGACGAUUGUAUGTT; antisense CAUACAAUCGUCUCGGGUATT; sugars from the 5' end r19 d2, backbone not given here)",effect on cell proliferation,C4-2 cells [3],no effect; also recorded: without affecting
same,effect on apoptosis,C4-2 cells [4],no effect
same,enzymatic activity of caspases 3 and 7 versus control,C4-2 cells [4],not statistically different
same,TSP1 mRNA level,TSP1 mRNA; [9],significantly reduces
same,TSP1 protein level,TSP1 [5],significantly reduces
"β3: siRNA targeting β3 integrin: GGAGAAUCUGCUGAAGGAUdTdT / AUCCUUCAGCAGAUUCUCCdTdT (chain 1 GGAGAAUCUGCUGAAGGAUTT; chain 2 AUCCUUCAGCAGAUUCUCCTT; sugars from the 5' end r19 d2, backbone not given here)",migration of C4-2 cells,C4-2 cells [7],strongly reduced
